Assay results published in a melting point compilation (Tetko et al.; mined from patent text by program, amines drawn as free bases though some values may be those of a salt).

| SMILES | melting point |
| --- | --- |
| Cc1noc(-c2ccc(C(F)(F)F)cc2)c1C(=O)Nc1ccccc1C(=O)O | 205 to 206 °C |
| Cc1c(Cc2cccc(C(F)(F)F)c2)sc2c(-c3cc(F)cc(C(=O)NCC(N)=O)c3)cccc12 | 46 to 47 °C |
| NC(=O)c1nnc2n1-c1ccc(Cl)cc1C(c1ccccc1Cl)=NC2 | 226 to 228 °C |
| Cc1cccc(C)c1Sc1nc[nH]n1 | 126 to 127 °C |
| COC(=O)c1cc(-c2ccc(S(C)(=O)=O)cc2)n(C2CCCCC2)n1 | 108 °C |
| O=C(O)c1nc2ccccc2n(Cc2ccccc2)c1=O | 149 to 150 °C |
| O=C(Nc1ccc(Cl)c(C(F)(F)F)c1)c1ccccc1 | 130 to 131 °C |
| Cn1nc(-c2c(F)cccc2Cl)nc1-c1ccc(OCc2ccc(C(F)(F)F)cc2Cl)c(Cl)c1 | 156 to 159 °C |
| COC(=O)c1ccc(CC(C)(C)NCC(O)c2ccccc2)cc1 (centres undefined) | 125 °C |
| O=C(NCCCCCCCNC(=O)c1ccc(OC(F)F)cc1)c1ccc(OC(F)F)cc1 | 138 to 139 °C |
| CC(C)CCCC(C)C1CCC2C3CC=C4CC(OCCCCCCSC5OCC(O)C(O)C5O)CCC4(C)C3CCC12C (centres undefined) | 115 °C |
| COc1cccc(COc2cc3c(cc2OC)C(=O)N(Cc2cccc(OC)c2)CC3)c1 | 85 to 86 °C |
| COc1ccc(-c2cc(=O)c3c(O)cc(OCC4=COC(C)(C)O4)cc3o2)cc1OC | 166 °C |
| CC#CCCCn1ncc2c(N)c3c(nc21)CN(CCC)C3=O | 168 to 170 °C |
| COc1cc(C)cc(OC)c1NC1C2CC3CC(C2)CC1C3 (centres undefined) | 100 °C |
| CCOC(=O)c1ccc2nccc(Cl)c2c1 | 84 to 85 °C |
| CCS(=O)(=O)CCc1ccc2[nH]cc(CC3CCCN3C)c2c1 (centres undefined) | 59 to 62 °C |
| CC(C)(CC(O)(Cn1cc(Cl)c(=O)c2cnccc21)C(F)(F)F)c1cccc2c1OCC2 (centres undefined) | 158 to 160 °C |
| CN(C)c1cccc(-c2ccc3nnn(Cc4ccc5ncccc5c4)c3n2)c1 | 124 to 126 °C |
| N#CCCNC(=O)c1cccc(-c2cccc3nn(Cc4cccc(F)c4)cc23)c1 | 170 to 171 °C |
| CC1Cc2c(C#N)cccc2C1=O (centres undefined) | 101 to 102 °C |
| COc1ccccc1C1CC(=O)Oc2ccc(C)cc21 (centres undefined) | 140 °C |
| O=C(O)CCC(=O)c1ccc(Cl)c(S(=O)(=O)NCc2ccccc2Cl)c1 | 158 °C |

| SMILES | melting point |
| --- | --- |
| O=C(C1CCN(S(=O)(=O)c2ccc(Br)cc2)CC1)N1CCN(c2ccncn2)CC1 | 171 to 174 °C |
| CCOC(=O)n1c2ccccc2c(=O)n1Cc1ccc([N+](=O)[O-])cc1 | 123 to 124 °C |
| Clc1cc(NC23CC4CC(CC(C4)C2)C3)nc(NC23CC4CC(CC(C4)C2)C3)n1 | 232 to 236 °C |
| C=CCN1CCc2cc(OC)c(O)c3c2C1Cc1cc(O)c(OC)cc1-3 (single isomer, unassigned; (+)) | 161 to 171 °C |
| CC12C=CCC1C1CCC3CCCCC3C1CC2 (centres undefined) | 165 to 166 °C |
| CC(C)(Cc1ccc(O)c2ncccc12)[N+](=O)[O-] | 133 to 134 °C |
| O=C(Oc1ccc(F)cc1)c1ccccc1 | 48 to 50 °C |
| CC(CCC(=O)C(C)(C)OO)C1CCC2C3CC=C4CC(O)CCC4(C)C3CCC12C (centres undefined) | 146 to 147 °C |
| OC1=Cc2ccccc2C=Cc2cc(Br)ccc21 | 148 to 151 °C |
| COc1ccc(-c2nc3ccc(OC(F)(F)F)cc3[nH]2)cc1OCc1ccccc1 | 226 to 228 °C |
| CC(C)n1nc(-c2sc(NC(=O)N(C)C)nc2-c2ccccc2)ccc1=O | 199 to 200 °C |
| CN1CCC(O)(c2ccccc2F)CC1 | 127 to 129 °C |
| CCOC(=O)C(C#N)=Cc1cccc(C(F)(F)F)c1Cl | 50 °C |
| COc1cccc(Cl)c1CBr | 44 to 47 °C |
| CCN(O)Cc1nnc2n1-c1ccc(Cl)cc1C(c1ccccc1)=NC2 | 154 to 157 °C |
| CCOC(=O)C(=CNc1ncnc2ccc(N3CCN(C)CC3)cc12)C(=O)OCC | 154 to 159 °C |
| CS(=O)(=O)Nc1ccc(O)cn1 | 246 to 247 °C |
| CCN1CCCN(c2cc(Cl)ccc2C)C1=S | 111 to 112 °C |
| CCCCCCCCCCCCCCCCOC[C@@H]1OCC[C@H]1OP(=O)([O-])OCC[N+](C)(C)C (relative stereo) | 213 to 223 °C |
| COc1ccc(-c2cc(Cl)c3ccccc3n2)cc1Cl | 113 to 116 °C |
| CCOC(=O)CCCN1C(=O)N(c2ccc(C#N)c(C(F)(F)F)c2)C(=O)C12CCOCC2 | 129 to 130 °C |
| Nc1cc(C(F)(F)C(F)(F)C(F)(F)C=CC(F)(F)C(F)(F)C(F)(F)c2ccc(O)c(N)c2)ccc1O | 187 to 188 °C |
| Cc1ccc2nc(O)c(O)nc2c1 | > 300 °C |

| SMILES | melting point |
| --- | --- |
| CCOC(=O)C1=C(C)Nc2nc(N3CCOCC3)nc(N3CCOCC3)c2C1c1c(F)c(F)c(F)c(F)c1F (centres undefined) | 195 °C |
| COc1ccc(-n2c(N)cc(=O)nc2Nc2ccccc2)cc1 | 180 to 190 °C |
| O=C(O)CCCC1NCC2CCCN3CCCC1C23 (centres undefined) | 185 to 187 °C |
| O=C(O)Cc1ccc(NC(=O)C(COc2cccnc2)NS(=O)(=O)c2ccc(Br)cc2)cc1 (racemic) | 205 to 207 °C |
| COC(=O)c1ccc(C2NCCc3c2[nH]c2ccccc32)cc1 (centres undefined) | 179 °C |
| CCCC1(Br)Cc2c3c(c(C)c(C)c2C1=O)OC(C(=O)O)C3 (centres undefined) | 78 °C |
| NC(=O)c1cnn2c1N(C(=S)NC(=O)c1ccccc1)CC=C2c1cccc(C(F)(F)F)c1 | 210 to 212 °C |
| CC(C)(C)OC(=O)C(C)(C)Oc1ccc2c(c1)Nc1ccccc1S2 | 138 to 140 °C |
| Cc1c(NC(=O)c2ccc(-c3ccc(F)cc3F)cc2)ccc2cc(CN3CCCC3)cnc12 | 177 to 179 °C |
| Cc1ccc(C2CCN(C(=O)Nc3ccc4cc(CN5CCCC5)cnc4c3)CC2)cc1 | 244 to 246 °C |
| N#Cc1ccc(N2CCN(c3ccncc3)CC2)cc1 | 155 to 158 °C |
| CN(CCCCCCNC(=NCCCOc1cccc(CN2CCCCC2)c1)NC#N)CCN(Cc1ccc(F)cc1)c1ccccn1 | 58 °C |
| [N-]=[N+]=NCC1CN(c2cc(F)c(-c3cccnc3)c(F)c2)C(=O)O1 (centres undefined) | 97 to 98 °C |
| COC(=O)c1ccc(Cn2cnc3c(Cl)nc(N)nc32)cc1 | 150 to 155 °C |
| O=C(O)[C@@H]1C[C@H]2C[C@@H](CCc3cc(O)no3)CC[C@H]2CN1 (racemic) | 256 °C |
| CC(C)(C)OC(=O)CNC(=O)C(=O)c1cn(Cc2ccccc2)c2ccc(-c3ccc(OC(F)(F)F)cc3)cc12 | 167 to 168 °C |
| CCCn1c(=O)c(C#N)c(Cl)c2ccccc21 | 203 to 205 °C |
| N#Cc1nn(-c2c(Cl)cc(C(F)(F)F)cc2Cl)c(Sc2ccccc2)c1SC(F)(F)F | 84 to 86 °C |
| COc1cc(O)c2c(=O)c(OC)c(-c3ccc(N)cc3)oc2c1 | 221 °C |
| Fc1cc(Br)c2ncccc2c1 | 75 to 78 °C |
| O=[N+]([O-])c1cc(I)ccc1Nc1cccc(-c2cncnc2)c1 | 214 to 217 °C |
| O=C(CO)c1ccc(C2CCCCC2)cc1 | 104 to 106 °C |
| CCCN(CCC)C(=O)Cn1c(=O)[nH]c2cnc(-c3ccccc3)nc21 | 190 to 191 °C |

Next, values leading:

| melting point | SMILES |
| --- | --- |
| 146 to 148 °C | O=C(O)[C@@H]1CSC(c2ccccc2O)N1C(=O)CCS (some centres undefined) |
| 119 to 121 °C | CC(=O)OC(=Cc1ccccc1)c1ccc(OC(C)=O)c(OC(C)=O)c1[N+](=O)[O-] |
| 175 to 176 °C | NC(=O)NC1CCCCC1 |
| 113 to 115 °C | COc1ccc(S(=O)(=O)Nc2ccccc2Cl)cc1OC1CCCC1 |
| 166 to 167 °C | CC1(C)CCSc2ccc(C(O)COc3ccc(C(=O)O)c(O)c3)cc21 (centres undefined) |
| 100 to 106 °C | CC(C)C[C@H](NC(=O)CCS(=O)(=O)c1ccccc1)C(=O)N[C@@H](C(C)C)[C@@H](O)c1c(-c2ccccc2)c1=O |
| 149 to 150 °C | CCOC(=O)C(=C(c1ccc(F)cc1)c1ccc(F)cc1)n1nnnc1-c1ccccc1 |
| 107 to 109 °C | CC(C)Sc1c(C(=O)O)sc2cccc(Cl)c12 |
| 192 to 194 °C | CC1(O)NC(=O)OC12CCNCC2 (centres undefined) |
| 230 to 231 °C | Oc1ccc2c(c1)COc1c-2cc2ccc(O)cc2c1Cl |
| 175 to 178 °C | O=C(NC[C@H]1CN(c2ccc(N3CCC4(CC3)OCCO4)c(F)c2)C(=O)O1)C(Cl)Cl |
| 96 °C | O=[N+]([O-])c1cc(S(=O)(=O)N2CCC(O)C2)sc1Cl (racemic) |
| 93 to 95 °C | CCOC(=O)c1cc(C(C)C)n(-c2ccc(Cl)cc2Cl)n1 |
| 207 °C | COc1cc(-n2nc(C(F)(F)F)cc2-c2ccc(-c3ccco3)cc2)ccc1S(N)(=O)=O |
| 55 to 57 °C | OC1CCCCC1c1ccccc1 (centres undefined) |
| 118 to 119 °C | COc1c(Cl)nc(SC)nc1NN |
| 285 to 288 °C | O=CN1CCN(S(=O)(=O)CCCOc2ccc3c(c2)CC2NC(=O)NC2=N3)CC1 (centres undefined) |
| 144 to 145 °C | C[C@@H](SCC(N)=O)[C@](O)(Cn1cncn1)c1ccc(F)cc1F |
| 30 to 33 °C | C=Cc1ccc(Cc2ccc(C=C)cc2)cc1 |
| 175 to 178 °C | COC(=O)Nc1nc2cc(SCC3(C)CC3(Cl)Cl)ccc2[nH]1 (centres undefined) |
| 134 to 137 °C | CCCCCC(NS(=O)(=O)c1ccc(Cl)cc1)c1ccc(CCCC(=O)O)cc1 (single isomer, unassigned; (-)) |
| 129 °C | O=C(O)C1=c2ccccc2=CC=C2CC=CC=C21 |
| 196 to 197 °C | COc1ccc(CN2c3ccc(Cl)cc3C=C(C(=O)O)C2C(F)(F)F)cc1 (centres undefined) |
| 227 to 232 °C | O=[N+]([O-])c1ccc2nc(-c3ccc(Cl)cc3)sc2c1 |
| 195 to 197 °C | Cn1cc(C(F)(F)F)nc1-c1ccc(OCC(O)CNCCOc2ccc(O)c(C(N)=O)c2)cc1 (centres undefined) |
| 118 to 120 °C | COC(=O)Cc1cc2ccc(OC)cc2n(Cc2ccccc2)c1=O |
| 89 to 90 °C | CCCCCCC#Cc1ccc(/C=C(/C(=O)O)C(=O)OCC)o1 |
| 144 to 146 °C | COc1ccc(-c2ocnc2-c2cc(OC)c(O)c(OC)c2)cc1O |
| 172 to 173 °C | NNc1nc(-c2ccccc2)c2cc(Cl)ccc2n1 |
| 152 to 153 °C | COC(=O)c1cc(Br)cc(Cl)c1NC(C)=O |
